The values below come from patent US5451605A, “1,2-epoxycyclohexanyl and bicyclic aromatic substituted ethyne compounds having retinoid-like biological activity” (Allergan, Inc., priority 1993, dated 1995).

Molecules are shown by their SMILES.

The test system of test [1] is ornithine decarboxylase (ODC). Put plainly: inhibition of TPA induction of ornithine decarboxylase (ODC). In kind it is in vivo. The source says: The retinoid-like activity of these compounds is confirmed through the classic measure of retinoic acid activity involving the effects of retinoic acid on ornithine decarboxylase. The original work on the correlation between retinoic acid and decrease in cell proliferation was done by Verma & Boutwell, Cancer Research, 1977, 37,2196-2201. That reference discloses that ornithine decarboxylase (ODC) activity increased precedent to polyamine biosynthesis. It has been established elsewhere that increases in polyamine synthesis can be correlated or associated with cellular proliferation. Thus, if ODC activity could be inhibited, cell hyperproliferation could be modulated. Although all causes for ODC activity increases are unknown, it is known that 12-0-tetradecanoylphorbol-13-acetate (TPA) induces ODC activity.

Test [2] relates to ornithine decarboxylase (ODC). The following applies: general statement, TPA-induced ODC; cited from earlier work.

As a reminder, the IC80 is the point of the concentration-response curve where the effect stands at 80%. Read a high IC80 as a need for much substance.

Turning to `CC1(C)CCCC2(C)OC12C#Cc1ccc2cc(C(=O)O)ccc2c1` (racemic) [Compound 1, 6-[2-(1,2-epoxy-2,6,6-trimethyl-cyclohexan-1-yl)-ethynyl]-2-naphthoic acid], it took 0.0305 µM to reach the 80% level in test [1] (IC80).
Regarding `CC1=C(/C=C/C(C)=C/C=C/C(C)=C/C(=O)O)C(C)(C)CCC1` [Retinoic acid], the “inhibition of TPA induction of ODC activity” value in test [2] was “inhibits this induction of ODC activity by TPA”.
